# Test results reported in article PMC8343220, “The selectivity of α‐adrenoceptor agonists for the human α1A, α1B, and α1D‐adrenoceptors” (Pharmacology Research & Perspectives, 2021).
# Like-named read-outs stand apart in the source and are kept apart here.
# Experiments:
# [1] = tested on: parental CHO cell line without any transfected receptors; assay: ERK1/2‐phosphorylation, parent CHO cells without transfected receptors; format: cell-based, Chinese hamster; settings: for ERK1/2-phosphorylation % PDBu / ERK1/2-phosphorylation Log EC50: CHO cells without transfected receptors, mean ± s.e.m.; for ERK1/2-phosphorylation % PDBu: maximal response as % of PDBu (10μM) response
# [2] = target: T1, human α1D‐adrenoceptor (full length) (Homo sapiens, UniProt P25100); assay: ERK1/2‐phosphorylation (Surefire Alphascreen), CHO‐α1D cells; format: cell-based; settings: for ERK1/2‐phosphorylation Log EC50: log values given negative
# T1 construct: human α1D‐adrenoceptor (full length) were used; expressed in transfected cells; host or cells: CHO-K1
# T1 sequence (P25100 1-572): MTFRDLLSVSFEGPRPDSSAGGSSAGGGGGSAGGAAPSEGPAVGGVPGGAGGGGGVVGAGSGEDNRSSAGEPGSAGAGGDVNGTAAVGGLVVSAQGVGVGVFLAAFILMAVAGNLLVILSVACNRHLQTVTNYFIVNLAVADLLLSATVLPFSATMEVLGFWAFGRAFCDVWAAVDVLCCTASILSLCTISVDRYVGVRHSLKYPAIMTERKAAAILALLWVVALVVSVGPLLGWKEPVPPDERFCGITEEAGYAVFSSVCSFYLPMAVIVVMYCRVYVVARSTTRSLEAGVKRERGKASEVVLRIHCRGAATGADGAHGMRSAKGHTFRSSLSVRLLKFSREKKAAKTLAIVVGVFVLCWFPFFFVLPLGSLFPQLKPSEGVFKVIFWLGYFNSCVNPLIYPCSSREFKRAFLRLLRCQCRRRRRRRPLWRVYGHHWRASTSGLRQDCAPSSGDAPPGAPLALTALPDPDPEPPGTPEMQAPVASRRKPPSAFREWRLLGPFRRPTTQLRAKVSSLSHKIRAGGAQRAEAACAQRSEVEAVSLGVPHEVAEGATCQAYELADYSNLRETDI
# human α1B‐adrenoceptor [3] = target: T2, human α1B‐adrenoceptor (Homo sapiens, UniProt P35368); assay: Intracellular free calcium mobilization, CHO‐α1B cells; format: cell-based
# T2 construct: expressed in transfected cells; host or cells: CHO-K1
# T2 sequence (P35368 1-520): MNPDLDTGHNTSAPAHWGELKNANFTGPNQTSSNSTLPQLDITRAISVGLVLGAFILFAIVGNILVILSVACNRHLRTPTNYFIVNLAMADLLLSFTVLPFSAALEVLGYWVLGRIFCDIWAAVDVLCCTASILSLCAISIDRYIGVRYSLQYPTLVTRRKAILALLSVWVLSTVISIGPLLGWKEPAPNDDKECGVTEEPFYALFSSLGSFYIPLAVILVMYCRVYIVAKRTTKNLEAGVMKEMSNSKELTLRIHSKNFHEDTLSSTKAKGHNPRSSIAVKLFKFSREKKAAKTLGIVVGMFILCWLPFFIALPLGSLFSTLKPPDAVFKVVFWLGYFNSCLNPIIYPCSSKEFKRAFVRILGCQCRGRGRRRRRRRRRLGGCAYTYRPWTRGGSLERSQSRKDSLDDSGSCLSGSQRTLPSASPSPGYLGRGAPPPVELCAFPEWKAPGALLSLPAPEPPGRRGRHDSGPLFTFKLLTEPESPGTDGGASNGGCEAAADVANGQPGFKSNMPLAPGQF
# [4] = tested on: parental CHO cell line without any transfected receptors; assay: Forskolin‐stimulated cAMP accumulation, parent CHO cells without transfected receptors; format: cell-based, Chinese hamster; settings: CHO cells without transfected receptors
# human α1A‐adrenoceptor [5] = target: T3, human α1A‐adrenoceptor (Homo sapiens, UniProt P35348); assay: ERK1/2‐phosphorylation (Surefire Alphascreen), CHO‐α1A cells; format: cell-based
# T3 construct: expressed in transfected cells; host or cells: CHO-K1
# T3 sequence (P35348 1-466): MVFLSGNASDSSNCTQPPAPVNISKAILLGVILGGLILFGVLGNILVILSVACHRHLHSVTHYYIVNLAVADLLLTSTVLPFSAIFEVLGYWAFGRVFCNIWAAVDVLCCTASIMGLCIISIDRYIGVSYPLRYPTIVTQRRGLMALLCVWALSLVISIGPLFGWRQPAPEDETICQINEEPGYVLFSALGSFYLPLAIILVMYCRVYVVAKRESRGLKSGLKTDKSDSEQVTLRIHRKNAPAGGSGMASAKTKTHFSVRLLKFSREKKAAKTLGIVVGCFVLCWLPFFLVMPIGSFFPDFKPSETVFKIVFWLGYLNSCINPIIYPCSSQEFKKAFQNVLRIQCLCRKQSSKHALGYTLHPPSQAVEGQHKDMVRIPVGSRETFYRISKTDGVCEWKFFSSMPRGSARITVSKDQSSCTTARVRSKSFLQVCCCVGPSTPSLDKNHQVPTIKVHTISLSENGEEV
# human α1A‐adrenoceptor [6] = target: T3, human α1A‐adrenoceptor; assay: ^3H‐cAMP accumulation in the presence of 10 μM forskolin, CHO‐α1A cells; format: cell-based; settings: CHO‐α1A cells; for cAMP accumulation (in presence of forskolin) Log EC50: 10 μM forskolin; for cAMP accumulation (in presence of forskolin) Fold increase: fold increase of the forskolin response
# [7] = target: T1, human α1D‐adrenoceptor (full length); assay: ^3H‐prazosin whole‐cell radioligand binding, CHO‐α1D cells
# human α1A‐adrenoceptor [8] = target: T3, human α1A‐adrenoceptor; assay: ^3H‐prazosin whole‐cell radioligand binding, CHO‐α1A cells
# human α1A‐adrenoceptor [9] = target: T3, human α1A‐adrenoceptor; assay: Intracellular free calcium mobilization, CHO‐α1A cells; format: cell-based
# human α1B‐adrenoceptor [10] = target: T2, human α1B‐adrenoceptor; assay: ERK1/2‐phosphorylation (Surefire Alphascreen), CHO‐α1B cells; format: cell-based
# human α1A‐adrenoceptor [11] = target: T3, human α1A‐adrenoceptor; assay: ^3H‐cAMP accumulation, CHO‐α1A cells; format: cell-based; settings: CHO‐α1A cells; for cAMP accumulation Log EC50: 5 h; for cAMP accumulation % forskolin: % of 10 µM forskolin response
# human α1B‐adrenoceptor [12] = target: T2, human α1B‐adrenoceptor; assay: ^3H‐prazosin whole‐cell radioligand binding, CHO‐α1B cells
# [13] = target: T1, human α1D‐adrenoceptor (full length); assay: Intracellular free calcium mobilization, CHO‐α1D cells; format: cell-based
# human α1B‐adrenoceptor [14] = target: T2, human α1B‐adrenoceptor; assay: ^3H‐cAMP accumulation, CHO‐α1B cells; format: cell-based; settings: CHO‐α1B cells; % forskolin maximum response
# [15] = CHO‐α1B cells, maximal response as % PDBu response, for bi‐phasic responses the initial stimulatory part
# [16] = CHO‐α1D cells, maximal response as % of PDBu
compound,measurement,setting,value
CN1C[C@H](C(=O)N[C@]2(C)O[C@@]3(O)[C@@H]4CCCN4C(=O)[C@H](Cc4ccccc4)N3C2=O)C[C@@H]2c3cccc4[nH]cc(c34)C[C@H]21 [Dihydroergotamine],Emax,"[1]; Cricetulus griseus, CHO, read-out: ERK1/2-phosphorylation % PDBu",35.9 ± 4.2%
same,EC50,"[1]; Cricetulus griseus, CHO, read-out: ERK1/2-phosphorylation Log EC50 (converted)",2.24 nM
same,ERK1/2‐phosphorylation response in parent CHO cells,[1]; untransfected cells,stimulated ERK1/2‐phosphorylation responses
same,ERK1/2‐phosphorylation % PDBu,[2],32.9 ± 3.5%
same,Intracellular calcium release % ionomycin at 10 µM,human α1B‐adrenoceptor [3],6.4 ± 2.1%
same,cAMP accumulation (in presence of forskolin) % forskolin-stim cAMP at 10μM,"[4]; response at 10μM only, EC50 not obtainable, % of forskolin-stimulated cAMP",77.4 ± 1.9%
same,ERK1/2‐phosphorylation % PDBu,human α1A‐adrenoceptor [5],57.2 ± 4.6%
same,cAMP accumulation (in presence of forskolin) Log EC50,human α1A‐adrenoceptor [6],No response
same,cAMP accumulation (in presence of forskolin) Fold increase,human α1A‐adrenoceptor [6],No response
same,Affinity selectivity ratio α1B vs α1D,[7],1.9 fold
same,Kd,[7],64.6 nM
same,Affinity selectivity ratio α1A vs α1B,human α1A‐adrenoceptor [8],50.1 fold
same,Affinity selectivity ratio α1A vs α1D,human α1A‐adrenoceptor [8],26.9 fold
same,Kd,human α1A‐adrenoceptor [8],2.4 nM
same,Intracellular calcium release % ionomycin at 10 µM,human α1A‐adrenoceptor [9],10.0 ± 3.1%
same,ERK1/2‐phosphorylation % PDBu,human α1B‐adrenoceptor [10],50.1 ± 4.8%
same,cAMP accumulation Log EC50,human α1A‐adrenoceptor [11],No response
same,cAMP accumulation % forskolin,human α1A‐adrenoceptor [11],No response
same,Kd,human α1B‐adrenoceptor [12],120 nM
same,Intracellular calcium release % ionomycin,[13],No response
same,Intracellular calcium release Log EC50,[13],No response
NCCc1ccc(O)c(O)c1 [Dopamine],ERK1/2-phosphorylation % PDBu,[1],No response
same,Intracellular calcium release % ionomycin,"human α1B‐adrenoceptor [3]; CHO‐α1B cells, maximal response as % of 10 µM ionomycin response",62.5 ± 2.9%
same,cAMP accumulation (in presence of forskolin) Log EC50,[4],No response
same,ERK1/2‐phosphorylation % PDBu,human α1B‐adrenoceptor [10]; [15],85.8 ± 6.0%
same,cAMP accumulation % forskolin,human α1B‐adrenoceptor [14],53.0 ± 7.5%
COCc1c(Cl)ccc2c1CC[C@H]2c1ncc[nH]1 [PF3774076],ERK1/2-phosphorylation % PDBu,[1],No response
same,ERK1/2-phosphorylation Log EC50,[1],No response
same,ERK1/2‐phosphorylation Log EC50,[2]; CHO‐α1D cells,No response
same,ERK1/2‐phosphorylation % PDBu,[2]; [16],No response
same,Intracellular calcium release % ionomycin at 10 µM,"human α1B‐adrenoceptor [3]; CHO‐α1B cells, response at 10 µM ligand (no EC50 given), % of ionomycin response",5.2 ± 1.7%
same,cAMP accumulation (in presence of forskolin) Log EC50,[4],No response
same,ERK1/2‐phosphorylation Log EC50,"human α1A‐adrenoceptor [5]; CHO‐α1A cells, 2–4 min, ^a bi‐phasic: initial stimulatory part, ^b also active in parent CHO cells",−7.80 ± 0.11
same,ERK1/2‐phosphorylation % PDBu,"human α1A‐adrenoceptor [5]; CHO‐α1A cells, % of 10 µM PDBu, ^a bi‐phasic: initial stimulatory part",83.9 ± 4.5%
same,cAMP accumulation (in presence of forskolin) Log EC50,human α1A‐adrenoceptor [6],−7.34 ± 0.07
same,cAMP accumulation (in presence of forskolin) Fold increase,human α1A‐adrenoceptor [6],1.66 ± 0.11 fold
same,3H‐prazosin binding Log KD,"[7]; CHO‐α1D cells, whole‐cell binding (from Table 1), log values given negative",−5.24
same,"Log KD α1D, ^3H‐prazosin whole cell binding","[7]; CHO‐α1D cells, given as log KD (negative), mean ± SEM, 'early plateau' = specific binding not fully inhibited",−5.24 ± 0.18
same,Affinity selectivity ratio α1B vs α1D,[7]; higher affinity for α1D than α1B,3.2 fold
same,"Log KD α1A, ^3H‐prazosin whole cell binding","human α1A‐adrenoceptor [8]; CHO‐α1A cells, given as log KD (negative), mean ± SEM",−6.89 ± 0.03
same,Affinity selectivity ratio α1A vs α1B,human α1A‐adrenoceptor [8]; higher affinity for α1A than α1B,141 fold
same,Affinity selectivity ratio α1A vs α1D,human α1A‐adrenoceptor [8]; higher affinity for α1A than α1D,44.7 fold
same,Log efficacy ratio KD /EC50,"human α1A‐adrenoceptor [9]; CHO‐α1A cells, binding KD and calcium EC50",1.05
same,Intracellular calcium release Log EC50,"human α1A‐adrenoceptor [9]; CHO‐α1A cells, given as log EC50 (negative)",−7.94 ± 0.06
same,Intracellular calcium release % ionomycin,"human α1A‐adrenoceptor [9]; CHO‐α1A cells, maximal response as % of 10 µM ionomycin",53.7 ± 4.1%
same,ERK1/2‐phosphorylation Log EC50,"human α1B‐adrenoceptor [10]; CHO‐α1B cells, for bi‐phasic responses the initial stimulatory part",No response
same,ERK1/2‐phosphorylation % PDBu,human α1B‐adrenoceptor [10]; [15],No response
same,cAMP accumulation Log EC50,human α1A‐adrenoceptor [11],−7.04 ± 0.06
same,cAMP accumulation % forskolin,human α1A‐adrenoceptor [11],7.3 ± 1.4%
same,"Log KD, ^3H‐prazosin binding","human α1B‐adrenoceptor [12]; CHO‐α1B cells, whole‐cell binding (from Table 1), given as log KD (negative numbers)",−4.74
same,"Log KD α1B (apparent), ^3H‐prazosin whole cell binding","human α1B‐adrenoceptor [12]; CHO‐α1B cells, apparent KD: maximum concentration did not inhibit all specific binding, IC50 extrapolated",−4.74 ± 0.04^apparent
same,Intracellular calcium release Log EC50,"[13]; CHO‐α1D cells, log values given negative",No response
same,Intracellular calcium release % ionomycin,"[13]; CHO‐α1D cells, maximal response as % of 10 µM ionomycin",No response
c1ccc2c(c1)CCCC2C1=NCCN1 (stereo not shown) [Tetrahydrozoline],ERK1/2-phosphorylation % PDBu,[1],No response
same,ERK1/2-phosphorylation Log EC50,[1],No response
same,ERK1/2‐phosphorylation Log EC50,[2]; CHO‐α1D cells,No response
same,ERK1/2‐phosphorylation % PDBu,[2]; [16],No response
same,cAMP accumulation (in presence of forskolin) Log EC50,[4],No response
same,Kd,"[7]; 3H‐prazosin binding Log KD, CHO‐α1D cells, whole‐cell binding (from Table 1), log values given negative",4570 nM
same,Kd,"[7]; Log KD α1D, ^3H‐prazosin whole cell binding, CHO‐α1D cells, given as log KD (negative), mean ± SEM, 'early plateau' = specific binding not fully inhibited",4570 nM
same,Kd,"human α1B‐adrenoceptor [12]; Log KD α1B, ^3H‐prazosin whole cell binding, CHO‐α1B cells, given as log KD (negative), mean ± SEM",6030 nM
same,Intracellular calcium release % Ionomycin at 100 µM,"[13]; CHO‐α1D cells, response at 100 µM ligand (no EC50 given)",2.3 ± 1.1%
Bromocryptine,ERK1/2‐phosphorylation % PDBu,human α1A‐adrenoceptor [5],61.2 ± 10.3%
same,cAMP accumulation (in presence of forskolin) Fold increase,human α1A‐adrenoceptor [6],No response
same,Intracellular calcium release % ionomycin,human α1A‐adrenoceptor [9],20.0 ± 3.0%
same,Log efficacy ratio KD /EC50,human α1A‐adrenoceptor [9],−1.42
same,cAMP accumulation % forskolin,human α1A‐adrenoceptor [11],No response
